According to paper PMC10065799, “High-throughput profiling of sequence recognition by tyrosine kinases and SH2 domains using bacterial peptide display” (eLife, 2023):

Key:
c-Src kinase domain [1] = biological target: T1, c-Src kinase domain (Homo sapiens, UniProt P12931); assay: pTyr-Var library bacterial peptide display kinase screen (enrichment scores); assay type: biochemical; details: sheet "Src";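 further: log2 fold change in enrichment of variant over reference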
c-Abl kinase domain = biological target: T2, c-Abl kinase domain (Mus musculus, UniProt P00520); assay: as above; assay type: biochemical;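 further: log2 fold change in enrichment of variant over reference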
T2 sequence (P00520 242-493 limits assumed): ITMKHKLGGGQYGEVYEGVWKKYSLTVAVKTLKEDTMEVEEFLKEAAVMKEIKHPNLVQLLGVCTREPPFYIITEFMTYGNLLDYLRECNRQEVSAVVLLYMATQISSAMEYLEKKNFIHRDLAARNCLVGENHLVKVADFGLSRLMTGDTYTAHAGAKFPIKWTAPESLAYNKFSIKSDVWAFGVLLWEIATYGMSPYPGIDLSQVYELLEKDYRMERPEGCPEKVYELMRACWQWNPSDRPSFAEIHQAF

Fer kinase domain = assay: as above; assay type: biochemical, mouse; details: sheet "Fer"
EPHB1 kinase domain = assay: as above; assay type: biochemical, human; details: for Screen (variant relative to reference peptide, measured in the pTyr-Var library screen): sheet "EPHB1", variant seq vs reference seq, bacterial peptide display enrichment; for Screen: sheet EPHB1, effect of the variant peptide relative to its reference peptide in the pTyr-Var library screen (enrichment scores)
EPHB2 kinase domain = assay: as above; assay type: biochemical, human; details: sheet EPHB2;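 further: log2 fold change in enrichment of variant over reference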
c-Src kinase domain [2] = biological target: T1, c-Src kinase domain; assay: ADP-Quest continuous fluorimetric kinase assay (Michaelis-Menten parameters and initial rates); assay type: biochemical; details: ADP-Quest assay, c-Src kinase domain 10 nM, 100 μM ATP, 37 °C; three to five replicates; error = standard error of global Michaelis-Menten fit
Source text: A fluorescence-based assay from Eurofins (ADP Quest) was used to measure the Michaelis-Menten kinetic parameters for phosphorylation of the consensus peptides by purified tyrosine kinase domains. In this assay, ADP production as a result of kinase activity is coupled to the production of resorufin, a fluorophore that emits signal at 590 nm. For all experiments, the assay reactions were set up as described in the provided assay kit protocol, in a 384 well plate format. The peptide solutions were serially diluted in 100 mM Tris, pH 8.0, and the kinases were diluted to 50 nM in buffer (10 mM HEPES, 100 mM NaCl, 1 mM TCEP, 5 mM MgCl2, 10% (v/v) glycerol). The final reaction mixtures contained 10 nM of kinase with 100 μM of ATP. Reactions were initiated with the addition of 1 mM ATP into a 50 μL reaction mixture for a final concentration of 100 μM ATP. Phosphorylation reaction progress was monitored by measuring fluorescence at excitation 530 nm and emission 590 nm every 2 min at 37 °C on a plate reader (BioTek Synergy Neo 2). The fluorescence units (RFU) were converted to μM ADP by comparison to a standard curve, and the initial rates were extracted from the linear regime of the reaction progress curves. Initial rates were also measured for samples containing each kinase but lacking a peptide substrate, to account for background ATP hydrolysis. This background rate was subtracted from the rates measured in the presence of peptide. The subtracted rates were plotted as a function of substrate concentration and fit to the Michaelis-Menten equation to extract kcat and KM values.

c-Src kinase domain [3] = biological target: T1, c-Src kinase domain; assay: RP-HPLC assay to measure peptide phosphorylation kinetics; assay type: biochemical; details: purified peptide substrate
[4] = variant peptide versus its reference peptide in the pTyr-Var library screen
[5] = sheet "Abl", effect of variant peptide relative to its reference peptide in pTyr-Var library screen (enrichment)
[6] = variant peptide relative to its reference peptide, pTyr-Var library screen enrichment
[7] = effect of the variant relative to its reference peptide in the pTyr-Var library screen
[8] = effect of variant peptide relative to its reference peptide in the pTyr-Var library screen (enrichment scores)
[9] = value of the variant peptide against its reference peptide in the pTyr-Var library screen with Fer
[10] = effect of the variant peptide relative to its reference peptide in the pTyr-Var library screen
[11] = fig5-data2, sheet "Abl", Screen for the variant/reference peptide pair, pTyr-Var library

ACCLLYCGDVV [TUBA4A_Y319_R320C]
Screen (c-Src kinase domain [1]; [4]): -0.4326 | Screen (c-Abl kinase domain; [5]): -0.5266 | Screen (Fer kinase domain; [6]): 2.253 | Screen (variant relative to reference peptide, measured in the pTyr-Var library screen) (EPHB1 kinase domain): 4.284 | Screen (EPHB2 kinase domain; [7]): 3.709

AQQPIYIRVEG [NLRP7_Y318_V319I]
Screen (c-Src kinase domain [1]; [4]): -2.214 | Screen (EPHB1 kinase domain): -2.185 | Screen (EPHB2 kinase domain; [8]): -2.079

Ac-GCDECIYGMFPFRRRG-NH2 [Src Consensus (P-5C, D+1 G), Src Consensus-related peptide with +1 Gly]
Km (c-Src kinase domain [2]): 97 ± 10 µM | kcat (c-Src kinase domain [2]): 4.4±0.2 s^–1

Ac-IGEGTYRTVFK-NH2 [CDK5-Y15-G16R]
Phosphorylation Rate (c-Src kinase domain [3]): 0.219 s⁻¹

Ac-SGDITYGQFAQ-NH2 [PLCG1_Y210]
Phosphorylation Rate (c-Src kinase domain [3]): 2.121 s⁻¹

CGPLLYGLVHQ [PRKCG_Y122_S119P]
Screen (c-Src kinase domain [1]; [4]): -0.4426 | Screen (Fer kinase domain; [9]): -0.6662 | Screen (EPHB1 kinase domain): 0.3123 | Screen (EPHB2 kinase domain; [8]): -0.1456

DAKTIYDFTDT [PDK1_Y136_A134T]
Screen (c-Src kinase domain [1]; [4]): -0.8148 | Screen (Fer kinase domain; [9]): -1.776 | Screen (EPHB2 kinase domain; [8]): -1.665

FQNSLYAPDFS [FAM92A_Y226_R222Q_YF]
Screen (c-Src kinase domain [1]; [10]): 0.8192 | Screen (Fer kinase domain; [9]): 1.873 | Screen (EPHB1 kinase domain): 0.991 | Screen (EPHB2 kinase domain; [8]): 1.651

GQRDLYSGLNE [CD3E_Y199_Q204E]
Screen (c-Src kinase domain [1]; [10]): -0.3824 | Screen (Fer kinase domain; [9]): -1.295 | Screen (EPHB1 kinase domain): -0.9821 | Screen (EPHB2 kinase domain; [8]): -0.7383

HNLDFYKMTTN [FGFR3_Y648_K650M_YF]
Screen (c-Src kinase domain [1]; [10]): -2.668 | Screen (Fer kinase domain; [9]): -0.9943 | Screen (EPHB1 kinase domain): -1.054 | Screen (EPHB2 kinase domain; [8]): 0.0281

IEEGTYGVAFR [CDK11B_Y449_V452A_YF]
Screen (c-Src kinase domain [1]; [10]): -0.1184 | Screen (Fer kinase domain; [9]): -0.4849 | Screen (EPHB1 kinase domain): -1.792 | Screen (EPHB2 kinase domain; [8]): -1.778

ITNLLYHLVGW [GBA_Y412_V414L]
Screen (c-Src kinase domain [1]; [10]): -0.6312 | Screen (Fer kinase domain; [9]): 0.1481 | Screen (EPHB1 kinase domain): -1.095 | Screen (EPHB2 kinase domain; [8]): -1.708

KLPFLYDDPFS [GPX2_Y127_P126L_YF]
Screen (Fer kinase domain; [9]): 1.127 | Screen (EPHB1 kinase domain): 2.862 | Screen (EPHB2 kinase domain; [8]): 2.625

KLVQLYDVCTK [BTK_Y461_G462D]
Screen (c-Src kinase domain [1]; [10]): 0.2967 | Screen (Fer kinase domain; [9]): 2.534 | Screen (EPHB1 kinase domain): 3.126 | Screen (EPHB2 kinase domain; [8]): 2.907

KVASVYEALGF [NT5C_Y65_P68L]
Screen (c-Src kinase domain [1]; [4]): 0.2966 | Screen (Fer kinase domain; [9]): -0.5868 | Screen (EPHB1 kinase domain): 1.12 | Screen (EPHB2 kinase domain; [8]): -0.4355

LDTFIYDAAVL [GRIN2A_Y730_A727T]
Screen (c-Src kinase domain [1]; [10]): 0.2901 | Screen (Fer kinase domain; [9]): -0.1876 | Screen (EPHB1 kinase domain): -0.673 | Screen (EPHB2 kinase domain; [8]): -0.5027

LENSTYQFIHV [CRB1_Y760_R764H_YF]
Screen (c-Src kinase domain [1]; [10]): 0.1019 | Screen (c-Abl kinase domain; [11]): -1.13 | Screen (Fer kinase domain; [9]): 0.6151 | Screen (EPHB1 kinase domain): 0.7891 | Screen (EPHB2 kinase domain; [8]): 0.62

LFEDCYLLGTS [ASS1_Y87_R86C_YF]
Screen (c-Src kinase domain [1]; [10]): 2.612 | Screen (EPHB1 kinase domain): -1.767 | Screen (EPHB2 kinase domain; [8]): -0.8272

LLIMEYAKFGS [RET_Y806_V804M_YF]
Screen (c-Src kinase domain [1]; [4]): 0.7851 | Screen (EPHB1 kinase domain): -1.009 | Screen (EPHB2 kinase domain; [8]): -0.7138

LNEAVYTKMMT [G6PD_Y401_P396L]
Screen (c-Src kinase domain [1]; [10]): 0.3249 | Screen (Fer kinase domain; [9]): 1.268 | Screen (EPHB1 kinase domain): 1.441 | Screen (EPHB2 kinase domain; [8]): 2.035

MVIPNYSSWTE [UROC1_Y185_R188W]
Screen (Fer kinase domain; [6]): 2.023 | Screen (variant relative to reference peptide, measured in the pTyr-Var library screen) (EPHB1 kinase domain): 4.533 | Screen (EPHB2 kinase domain; [7]): 4.793

NTFENYWPFFQ [GATM_Y103_K102N_YF]
Screen (c-Src kinase domain [1]; [10]): 2.256 | Screen (EPHB1 kinase domain): 4.344 | Screen (EPHB2 kinase domain; [8]): 3.46

PFGQWYESHFA [RPS8_Y113_R110G_YF]
Screen (c-Src kinase domain [1]; [4]): 2.137 | Screen (Fer kinase domain; [6]): 2.253 | Screen (EPHB1 kinase domain): 2.825 | Screen (EPHB2 kinase domain; [8]): 2.604

PFRKLYESVKK [MKI67_Y241_W238R]
Screen (c-Src kinase domain [1]; [10]): -1.776 | Screen (Fer kinase domain; [9]): -1.869 | Screen (EPHB1 kinase domain): -3.688 | Screen (EPHB2 kinase domain; [8]): -2.876

PLDNLYAEPAV [PRPS1_Y146_V142L]
Screen (c-Src kinase domain [1]; [4]): 0.376 | Screen (Fer kinase domain; [9]): 0.1056 | Screen (EPHB1 kinase domain): 0.8585 | Screen (EPHB2 kinase domain; [8]): 0.4426

PMFHSYVSLPF [PLXNA2_Y293_K289M]
Screen (c-Abl kinase domain; [11]): 0.1709 | Screen (EPHB1 kinase domain): 0.7871 | Screen (EPHB2 kinase domain; [8]): 0.8579

QKTGDYFDLFG [PTPN11_Y62_N58K_YF]
Screen (c-Src kinase domain [1]; [4]): -1.277 | Screen (EPHB1 kinase domain): -1.083 | Screen (EPHB2 kinase domain; [8]): -1.66

QLQQAYQEAFE [YWHAZ_Y149_S145L]
Screen (c-Abl kinase domain; [5]): 2.922 | Screen (Fer kinase domain; [6]): 1.389 | Screen (EPHB2 kinase domain; [7]): 1.539

QSSALYEDHFL [ASS1_Y83_R86H_YF]
Screen (c-Src kinase domain [1]; [10]): 0.1278 | Screen (Fer kinase domain; [9]): 0.8014 | Screen (EPHB1 kinase domain): 0.2982 | Screen (EPHB2 kinase domain; [8]): 1.176

RGDCTYAPLLG [AR_Y269_M268T]
Screen (c-Src kinase domain [1]; [10]): 0.1809 | Screen (Fer kinase domain; [9]): -1.638 | Screen (EPHB1 kinase domain): 0.2378 | Screen (EPHB2 kinase domain; [8]): 0.1305

RGKLFYQEVPA [METTL11B_Y76_A72G]
Screen (Fer kinase domain; [9]): -1.394 | Screen (EPHB1 kinase domain): -1.027 | Screen (EPHB2 kinase domain; [8]): -1.191

RPPELYALMSD [ZAP70_Y569_C564R]
Screen (c-Src kinase domain [1]; [4]): 1.184 | Screen (c-Abl kinase domain; [5]): 3.577 | Screen (variant relative to reference peptide, measured in the pTyr-Var library screen) (EPHB1 kinase domain): 2.108 | Screen (EPHB2 kinase domain; [7]): 1.779

SPFMLYQFLKQ [RPAP3_Y567_D564Y_YF]
Screen (c-Src kinase domain [1]; [4]): -1.029 | Screen (Fer kinase domain; [6]): -1.212 | Screen (EPHB1 kinase domain): 2.24 | Screen (EPHB2 kinase domain; [8]): 1.841

SSPQLYLVPFL [TAF4_Y652_P651L]
Screen (variant relative to reference peptide, measured in the pTyr-Var library screen) (EPHB1 kinase domain): 3.351 | Screen (EPHB2 kinase domain; [8]): 2.197

VGTKWYMAPEV [ACVRL1_Y375_R374W]
Screen (EPHB1 kinase domain): 2.34 | Screen (EPHB2 kinase domain; [8]): 2.182
